According to patent EP1881000A1, “Conjugates of 2-fluoro-2-deoxy-glucose and their uses as anti cancer agents” (INSTITUT NATIONAL DE LA SANTE ET DE LA RECHERCHE MEDICALE …, priority 2006, dated 2008):
Several values for one entry are separate records, joined by “and”; a condition that tells them apart may be missing. Identical values can stand only once.

Tests used:
[1] = system: Normal human fibroblasts; test: In vitro cytotoxicity assay (resazurin reduction test); type: cell-based; settings: Fibroblast, 48-h continuous drug exposure
Text: (§1) Normal human fibroblasts were purchased from Promocell (Heidelberg, Germany). This frozen culture was obtained from foreskin waste and the cells used in this work were from the seventh to twelfth passage of the culture. M4Beu, a human melanoma cell line, was established in the laboratory of Dr. J. F. Doré (INSERM, Unit 218, Lyon, France) from metastatic biopsy specimens and maintained in cell culture for almost 20 years in our lab. Breast cancer adenocarcinoma MCF 7, prostatic adenocarcinoma PC 3, colon adenocarcinoma DLD-1, lung non-small cell carcinoma A 549, ovary adenocarcinoma PA1 human cell lines and L 929 murine cell line were purchased from the European Collection of Cell Cultures (ECACC; Salisbury, United Kingdom). Murine Melanoma B16 was purchased from American Type of Culture Collection (ATCC, Manassas, USA) and murine colon carcinoma cell line CT-26 was obtained from Dr I. J. Fidler (University of Texas M.D. Anderson Cancer Center, Houston).
(§2) Stock cell cultures were maintained as monolayers in 75cm^2 culture flasks in Glutamax Eagle's minimum essential medium with Earle's salts (MEM; Gibco BRL, Paisley, UK) supplemented with 10% fetal calf serum (Sigma, St Quentin Fallavier, France), 1 mM sodium pyruvate (Gibco), 1X vitamins solution (Gibco), 1X non essential amino acids solution (Gibco) and 4 µg/ml of gentamicine (Gibco). Cells were grown at 37°C in a humidified atmosphere containing 5% CO2.
(§3) Cells were plated at a density of 5 x 10^3 cells per well in 96-well microplates (Nunclon™, Nunc, Roskilde, Denmark) in 150 µl of culture medium and were allowed to adhere for 16 h before treatment with the compound tested.
(§4) Stock solution of each compound was prepared in dimethylsulfoxide (DMSO) and kept at -20°C. until use. The percentage of DMSO was kept at 0.5% (v/v) whichever the concentration tested. […] Fifty microliters of a 4X solution in MEM was then added and a 48-h continuous drug exposure protocol was used. Then, the cytotoxic effect of compounds on tumour cells was tested by using Resazurin reduction test.
(§5) Resazurin was identified as the Alamar blue dye (O'Brien, J. et al.; European Journal of Biochemistry, 267, 5421-6, (2000)). The resazurin reduction test (RRT) was carried out according to the protocol described here. Briefly, plates were rinsed by 200 µl PBS (37° C, Gibco) using a multichannel dispenser (Labsystems, Helsinki, Finland) and emptied by overturning on absorbent toweling. Then, 150 µl of a 25 µg/ml solution of resazurin in MEM without SVF nor Phenol red was added in each well. The plates were incubated 1 h at 37° C. in an humidified atmosphere with 5% of CO2 for fluorescence development by living cells. Fluorescence was then measured on the automated 96-well plate reader Fluoroskan Ascent FL™ (Labsystems) using an excitation wavelength of 530 nm and an emission one of 590 nm.
Cytotoxic activity has been tested against the six human tumour cell lines breast adenocarcinoma MCF-7, colon adenocarcinoma DLD-1, ovary adenocarcinoma PA1, prostatic adenocarcinoma PC3, lung carcinoma A549, melanoma M4Beu and a primary culture of human fibroblasts.

[2] = system: Murine Melanoma B16; test: as above; type: cell-based; settings: Mus musculus, 48-h continuous drug exposure
Text: as §1, §2, §3, §4, §5

[3] = system: murine colon carcinoma cell line CT-26; test: as above; type: cell-based; settings: Mus musculus; CT26; 48-h continuous drug exposure
Text: as §1, §2, §3, §4, §5

[4] = system: B16 melanoma; test: Antitumour activity in B16-melanoma bearing mice, IP chemotherapy protocol; type: in vivo, C57BL6J male mice; settings: for Life span of the animals: B16 melanoma-bearing mice; for antitumour activity according to the NCI criteria decisions: in words
Protocol: (§6) Drugs were dissolved in a mixture of dimethylacetamide (Sigma) and oleic macrogolglycerides (Labrafil® M1944Cs, Gattefossé) (10:90%, vol/vol).
(§7) It is performed in tumour-bearing mice following an IP chemotherapy protocol.
To establish B16 melanoma model, 3 x 10^5 B16F0 cells (ATCC, Manassas, USA; in vitro doubling time of 16 hours) were suspended in 100 µL of phosphate buffer solution (PBS®, life Technologies) and injected into the subcutaneous tissue of the right flank of C57BL6J male mice, 6-weeks-old (Charles River, France) on day zero.
(§8) For both molecules and both animal models, treatment was initiated eight days post tumour grafting, when the tumours had reached a measurable size, corresponding to a calculated tumour weight (CTW) of 40 and 70 mg for B16 and CT-26 models respectively.
(§9) Animals were then randomly divided in both treatment and control groups. […] Two dosages have been evaluated, MTD and 0.75 MTD
(§10) Mice were weighed and observed every two days over a 30-day -period to evaluate general clinical state. Length and width of tumours were measured every two days over a 30-day-period using a dedicated slide calliper.
(§11) The Calculated Tumour Weight (CTW) of each tumour was determined according to the formula: CTW(mg) = L × 1^2 /2 [formula] with L = length in mm and 1= width in mm.
(§12) For subcutaneously growing tumours, antitumour activity is often assessed by using the log10 cell kill (LCK) which is calculated from the following formula: LCK = T-C value in days/3.32 × Td [formula] T is the median time (in days) required for the treatment group tumours to reach a predetermined CTW (e.g. 1000 mg). C is the median time (in days) required for the control group tumours to reach the same CTW. Td is the tumour volume doubling time (in days) estimated from the best fit straight line from a log-linear growth plot of the control group tumours in exponential growth.
(§13) An increase in life span was defined by the ratio of the median survival of drug-treated mice (Mt) versus controls (Mc): a survival Mt/Mc equal or higher than 125 % was sought
(§14) Mean weight loss of the group was used to evaluate treatment side effects. A mean body weight loss of greater 20% was considered to indicate an excessively toxic dosage.

[5] = system: CT-26 colon carcinoma; test: Antitumour activity in CT-26 colon carcinoma bearing mice, IP chemotherapy protocol; type: in vivo, BALB/c male mice; settings: for tumour growth inhibition (CTW time-course): CT26 carcinoma, vs non-treated and vehicle-treated groups, p< 0.05; for LCK / Antitumour Efficacy / Survival Mt/Mc / Weight loss (% max) / antitumour activity according to the NCI criteria decisions: CT26 colon carcinoma; for antitumour activity according to the NCI criteria decisions: in words; for Life span of the animals: CT-26 colon carcinoma-bearing mice
Protocol: as §6, §7
To establish CT-26 colon carcinoma model, 2.5 x 10^5 CT26 cells (Dr Iaiaih J.Filder of MDAnderson Cancer Center, University of Texas; in vitro doubling time of 20 hours) were suspended in 100 µL of phosphate buffer solution and injected into the subcutaneous tissue of the right flank of BALB/c male mice, 6-weeks-old (Charles River, France) on day zero.
as §8, §9, §10, §11
Considering physiopathological features of the CT26 colon carcinoma model, mainly cachexy, drugs 21a and 40a, were assessed at the lowest dosage, i.e. 0.75 MTD administered at Day 8, Day 12, Day 16.
The reference treatment chlorambucil was given at the MTD dosage according to the same schedule.
as §12, §13, §14

[6] = B16 melanoma, dosage not stated
[7] = B16 melanoma, 75% MTD, IP D8, D12, D16
[8] = B16 melanoma, MTD, IP D8, D12, D16
[9] = 0,75 MTD IP at Day 8, 12 and 16

SMILES | IC50 [1] [µM] | IC50 [2] [µM] | IC50 [3] [µM] | LCK [4, 6] | Life span of the animals [4] | Antitumour Efficacy [4, 7] | LCK [4, 7] | Survival Mt/Mc [4, 7] | Weight loss (% max) [4, 7] [%] | Antitumour Efficacy [4, 8] | LCK [4, 8] | Survival Mt/Mc [4, 8] | Weight loss (% max) [4, 8] [%] | antitumour activity according to the NCI criteria decisions ([4]; B16 melanoma) | tumour growth inhibition (CTW time-course) [5, 9] | LCK ([5]; dosage not stated) | Antitumour Efficacy ([5]; 75% MTD, IP D8, D12, D16) | LCK ([5]; 75% MTD, IP D8, D12, D16) | antitumour activity according to the NCI criteria decisions [5] | Life span of the animals [5] | further results
CC(=O)OC[C@H]1O[C@@H](NC(=O)CNC(=O)CCCc2ccc(N(CCCl)CCCl)cc2)[C@H](F)[C@@H](OC(C)=O)[C@@H]1OC(C)=O [Compound 21a, N-[2-(3,4,6-tri-O-acetyl-2-deoxy-2-fluoro-β-D-glucopyranosylamino)-2-oxoethyl]-4-{4-[bis(2-chloroethyl)amino]phenyl}butanamide] | 4.1 ± 0.1 | 6.4 ± 0.6 | 7 ± 1 | around 1.1 | increased | + (0.7 < LCK < 1.2 active drug (+)) | 1.10 | 1.18 | 16 | + (0.7 < LCK < 1.2 active drug (+)) | 1.02 | 0.74 | 15.7 | active | significant tumour growth inhibition | around 1.1 | + (0.7 < LCK < 1.2 active drug (+)) | 1.10 | active | increased | Survival Mt/Mc ([5]; 75% MTD, IP D8, D12, D16): 1.5; Weight loss (% max) ([5]; 75% MTD, IP D8, D12, D16): 17.1%
CC(=O)OC[C@H]1O[C@@H](Oc2ccc(NC(=O)CNC(=O)CCCc3ccc(N(CCCl)CCCl)cc3)cc2)[C@H](F)[C@@H](OC(C)=O)[C@@H]1OC(C)=O [Compound 40a, N-{2-[4-(3,4,6-tri-O-acetyl-2-deoxy-2-fluoro-β-D-glucopyranosyloxy)phenyl]amino-2-oxoethyl}-4-{4-[bis(2-chloroethyl)amino]phenyl}butanamide] | 17 ± 6 | 10 ± 0.5 | 4.3 ± 0.2 | around 1.5 | increased | ++ (1.7 < LCK < 1.9 highly active drug (++)) | 1.81 | 1.5 | 13.6 | ++ (1.7 < LCK < 1.9 highly active drug (++)) | 1.53 | 0.8 | 16.9 | highly active | significant tumour growth inhibition | around 1.5 | ++ (1.7 < LCK < 1.9 highly active drug (++)) | 1.52 | highly active | increased | Survival Mt/Mc ([5]; 75% MTD, IP D8, D12, D16): 1.29; Weight loss (% max) ([5]; 75% MTD, IP D8, D12, D16): 21% and 21.5%
O=C(O)CCCc1ccc(N(CCCl)CCCl)cc1 [chlorambucil, reference compound] | 99 ± 2 | 42.6 ± 9.5 | 6.3 ± 0.4 | < 0.7 | not | - (LCK < 0.7 inactive drug (-)) | 0.05 | 0.67 | 7.3 | - (LCK < 0.7 inactive drug (-)) | 0.24 | 1 | 13.6 | inactive |  | 0.79 |  |  | discrete antitumour activity | not | tumour growth inhibition (CTW time-course) ([4]; B16 melanoma, both MTD and 0,75 MTD dosages, vs non-treated and vehicle-treated groups, p< 0.05): failed to induce any tumour growth inhibition; antitumour activity according to the NCI criteria decisions ([4]; B16 melanoma, listed as Chlorambucil): failed in exhibiting any antitumour activity; tumour growth inhibition (CTW time-course) ([5]; MTD dosage, same schedule): significant tumour growth inhibition; LCK ([5]; MTD, IP D8, D12, D16): 0.79; Survival Mt/Mc ([5]; MTD, IP D8, D12, D16): 0.74; Weight loss (% max) ([5]; MTD, IP D8, D12, D16): 13.9%; antitumour activity according to the NCI criteria decisions ([5]; listed as Chlorambucil): failed in exhibiting any antitumour activity
